Data as given in patent US11655239B2 (SHANGHAI INSTITUTE OF MATERIAL MEDICA, CHINESE ACADEMY OF …, priority 2019, dated 2023).
Blank lines part the entries; values can stand above or below the molecule they belong to.

Key:
[1] = target: Src (Homo sapiens (Human), UniProt P12931); experiment: Enzyme selectivity test (ELISA), Src; type: biochemical
Experimental: (§1) 1) Enzyme reaction substrate Poly(Glu, Tyr) 4:1 was diluted to 20 μg/mL with potassium-free PBS (10 mM sodium phosphate buffer, 150 mM NaCl, pH 7.2-7.4), and the microtiter plate was coated with 125 μL/well and placed at 37° C. for 12-16 hours of reaction. The liquid in the well was discard. The plate was washed three times with T-PBS (potassium-free PBS containing 0.1% Tween-20, 200 μL/well), 5 minutes each time. The ELISA plate was dried in an oven at 37° C. for 1 to 2 hours.
(§2) 2) Reaction buffer (50 mM HEPES pH 7.4, 50 mM MgCl2, 0.5 mM MnCl2, 0.2 mM Na3VO4, 1 mM DTT) diluted ATP solution (49 μL) was added to each well, 1 μL of the compound to be tested was added to each well, and then 50 μL of DDR2 kinase domain recombinant protein diluted in the reaction buffer was added to start the reaction. Two control wells without ATP were set in each experiment. The plate placed on a shaker (100 rpm) at 37° C. for 1 hour of reaction. The liquid in the well was discarded and the plate was washed three times with T-PBS.
(§3) 3) Antibody PY99 dilution solution (the antibody was diluted 1:500 with T-PBS containing BSA 5 mg/mL) was added at 100 μL/well, and shaken on a shaker at 37° C. for 0.5 hour of reaction. The liquid in the well was discarded and the plate was washed three times with T-PBS.
(§4) 4) Horseradish peroxidase labeled goat anti-murine secondary antibody dilution solution (the antibody is diluted 1:2000 with T-PBS containing BSA 5 mg/ml) was added at 100 μL/well, and shaken on a shaker at 37° C. for 0.5 hour of reaction. The liquid in the well was discarded and the plate was washed three times with T-PBS.
(§5) 5) 2 mg/ml of OPD color developing solution [diluted with 0.1 M citric acid-sodium citrate buffer (pH=5.4) containing 0.03% H2O2] was added at 100 μL/well and reacted for 1 to 10 minutes at 25° C. in the dark.
(§6) 6) 2M H2SO4 was added at 50 μL/well to stop the reaction, and a tunable wavelength microplate reader VERSAmax was used for reading at a wavelength of 490 nm.
(§7) The IC50 value was obtained by four-parameter regression using the software that came with the microplate reader. […]

[2] = target: P38 MAPK; experiment: Enzyme selectivity test (ELISA), P38 MAPK; type: biochemical
Experimental: as §1
as §2, with “T-PBS. […]” for “T-PBS.”
as §6, §7

[3] = target: FGFR-1 (Homo sapiens (Human), UniProt P11362); experiment: Enzyme selectivity test (ELISA), FGFR-1; type: biochemical
Experimental: as §1, §2, §3, §4, §5, §6, §7

[4] = target: EGFR (Homo sapiens (Human), UniProt P00533); experiment: Enzyme selectivity test (ELISA), EGFR; type: biochemical
Experimental: as §1, §2, §3, §4, §5, §6, §7

[5] = test system: kinases; experiment: Enzyme selectivity test, kinase panel overall; type: biochemical; details: kinase panel of Table 5
Source text: Except that the enzyme was different, other test methods and conditions were the same as the DDR2 enzyme activity test method in Effect example 1.

[6] = target: FGFR-4 (Homo sapiens (Human), UniProt P22455); experiment: Enzyme selectivity test (ELISA), FGFR-4; type: biochemical
Experimental: as §1
as §2, with “T-PBS. […]” for “T-PBS.”
as §6, §7

[7] = target: FGFR-2 (Homo sapiens (Human), UniProt P21802); experiment: Enzyme selectivity test (ELISA), FGFR-2; type: biochemical
Experimental: as §1
as §2, with “T-PBS. […]” for “T-PBS.”
as §6, §7

[8] = target: ErbB2 (Homo sapiens (Human), UniProt P04626); experiment: Enzyme selectivity test (ELISA), ErbB2; type: biochemical
Experimental: as §1, §2, §3, §4, §5, §6, §7

[9] = target: ErbB4 (Homo sapiens (Human), UniProt Q15303); experiment: Enzyme selectivity test (ELISA), ErbB4; type: biochemical
Experimental: as §1, §2, §3, §4, §5, §6, §7

[10] = target: Met (Homo sapiens (Human), UniProt P08581); experiment: Enzyme selectivity test (ELISA), Met; type: biochemical
Experimental: as §1, §2, §3, §4, §5, §6, §7

[11] = target: RET (Homo sapiens (Human), UniProt P07949); experiment: Enzyme selectivity test (ELISA), RET; type: biochemical
Experimental: as §1, §2, §3, §4, §5, §6, §7

[12] = target: C-Kit (Homo sapiens (Human), UniProt P10721); experiment: Enzyme selectivity test (ELISA), C-Kit; type: biochemical
Experimental: as §1, §2, §3, §4, §5, §6, §7

[13] = target: FGFR-3 (Homo sapiens (Human), UniProt P22607); experiment: Enzyme selectivity test (ELISA), FGFR-3; type: biochemical
Experimental: as §1
as §2, with “T-PBS. […]” for “T-PBS.”
as §6, §7

[14] = target: Flt-3 (Homo sapiens (Human), UniProt P36888); experiment: Enzyme selectivity test (ELISA), Flt-3; type: biochemical
Experimental: as §1, §2, §3, §4, §5, §6, §7

[15] = target: VEGFR-1 (Homo sapiens (Human), UniProt P17948); experiment: Enzyme selectivity test (ELISA), VEGFR-1; type: biochemical
Experimental: as §1, §2, §3, §4, §5, §6, §7

[16] = target: ALK (Homo sapiens (Human), UniProt Q9UM73); experiment: Enzyme selectivity test (ELISA), ALK; type: biochemical
Experimental: as §1, §2, §3, §4, §5, §6, §7

[17] = target: KDR (Homo sapiens (Human), UniProt P35968); experiment: Enzyme selectivity test (ELISA), KDR; type: biochemical
Experimental: as §1, §2, §3, §4, §5, §6, §7

[18] = target: Abl (Homo sapiens (Human), UniProt P00519); experiment: Enzyme selectivity test (ELISA), Abl; type: biochemical
Experimental: as §1, §2, §3, §4, §5, §6, §7

[19] = target: PDGFR-β (Homo sapiens (Human), UniProt P09619); experiment: Enzyme selectivity test (ELISA), PDGFR-β; type: biochemical
Experimental: as §1, §2, §3, §4, §5, §6, §7

[20] = target: AXL (Homo sapiens (Human), UniProt P30530); experiment: Enzyme selectivity test (ELISA), AXL; type: biochemical
Experimental: as §1, §2, §3, §4, §5, §6, §7

[21] = target: EPH-A2 (Homo sapiens (Human), UniProt P29317); experiment: Enzyme selectivity test (ELISA), EPH-A2; type: biochemical
Experimental: as §1, §2, §3, §4, §5, §6, §7

[22] = target: IGF-1R (Homo sapiens (Human), UniProt P08069); experiment: Enzyme selectivity test (ELISA), IGF-1R; type: biochemical
Experimental: as §1, §2, §3, §4, §5, §6, §7

[23] = target: DDR2 (Homo sapiens (Human), UniProt Q16832); experiment: DDR2 enzyme activity test (ELISA); type: biochemical; details: read-out: DDR2 IC50
Experimental: The optical rotation and the inhibitory activity against DDR2 enzyme of the compounds S11-A and S11-B obtained by the resolution in Example 12, and the chirally synthesized compounds S11-A′ and S11-B′ in Example 13 were tested (referred to the operation in Effect example 1), and the results are shown in Table 3 below:
Detection method: Enzyme-linked immunosorbent assay (ELISA)
Test receptor tyrosine kinase: DDR2
The kinase used in the experiment was obtained by our laboratory using the insect baculovirus expression system to express and purify the recombinant protein containing the protein kinase region; polyglutamic acid-tyrosine peptide segment [Poly(Glu, Tyr) 4:1] and sodium vanadate were purchased from Sigma; the anti-phosphorylated monoclonal antibody PY99 was purchased from Santa Cruz; horseradish peroxidase labeled goat anti-murine secondary antibody was purchased from Calbiochem; ATP and OPD were purchased from Sangon Biotech (Shanghai) Co., Ltd.; the remaining reagents were purchased from Sinopharm Chemical Reagent Co., Ltd. The reaction ELISA plate (#2592) was purchased from Corning. The full-wavelength microplate reader for experiment reading was a product of Molecular Device, model: SpectraMax 190; the experimental water was distilled water produced by Sinopharm Group.
The compound was centrifuged at 12,000 g for 5 min, and DMSO was added to prepare a 10^-2M stock solution, which was vortexed evenly, then sonicated for 10 min and stored at −40° C. for later use. During the test, the compound was diluted with DMSO from the stock solution to 100 times the test concentration (the DMSO concentration in the system was 1%).
as §1, §2, §3, §4, §5, §6
The IC50 value was obtained by four-parameter regression using the software that came with the microplate reader.

[24] = target: PDGFR-α (Homo sapiens (Human), UniProt P16234); experiment: Enzyme selectivity test (ELISA), PDGFR-α; type: biochemical
Experimental: as §1, §2, §3, §4, §5, §6, §7

[25] = test system: mouse model of BLM-induced lung injury; experiment: Histopathological evaluation of lung sections, H&E staining; type: in vivo; details: mice
Experimental: Experimental objective: This group of experiments aimed to investigate the therapeutic potential of the compound S15 in acute lung injury and inflammation induced by bleomycin (BLM).
Experimental grouping (8 mice per group):
Model group (BLM): the mice received BLM (1.7 U/kg) via intratracheal instillation;
Compound S15 group (S15): this group was divided into three dose groups, namely 30, 60 and 90 mg/kg;
Positive control group (Nintedanib): Nintedanib administration group;
Negative control group (Control): only saline was used.
1) Material acquisition: The fresh tissue was fixed in 4% paraformaldehyde for more than 24 hours. The tissue was removed from the fixative solution and trim the tissue at the target site. The trimmed tissue was marked and placed in the dehydration box for later use.
2) Dehydration: The dehydration box was put in the dehydrator and different concentration gradients of ethanol was used sequentially for dehydration. 75% ethanol (4 hours), 85% ethanol (2 hours), 90% ethanol (2 hours), 95% ethanol (1 hour), absolute ethanol I (30 minutes), absolute ethanol II (30 minutes), alcohol benzene (5-10 minutes), xylene I (5-10 minutes), xylene II (5-10 minutes), wax I (1 hour), wax II (1 hour), wax III (1 hour).
3) Embedment: The wax melted at high temperature was put into the embedding frame; before the wax was cooled and solidified, the tissue was taken out of the dehydration box, put into the embedding frame according to the requirements of the embedding surface, marked and cooled at −20° C. After completely solidified, the wax block was removed from the embedding frame and trimmed.
4) Section: The trimmed wax block was put on a paraffin microtome for sectioning. The section thickness was about 4 μm. The sections were floated on warm water at 40° C. of the flotation workstation and flatten. A glass slide was used to lift the tissue from the warm water, and put into a 60° C. oven for dryness. After the water was dried and the wax melted, the glass slide was taken out and stored at ambient temperature for later use. […]

[26] = test system: bronchial epithelial cell line Beas-2B; experiment: Cytotoxic activity test (MTS), Beas-2B; type: cell-based, human; details: 5 μM
Experimental: (§8) Experimental objective: The cytotoxic activity of compound S15 on bronchial epithelial cell line Beas-2B and lung fibroblast cell line MRC-5 was tested.
(§9) 1) The human bronchial epithelial cell line Beas-2B and the human embryonic lung fibroblast cell line MRC-5 were collected, and inoculated at a certain density (about 5000-10000 cells) on a 96-well plate (the edge wells were filled with sterile water or PBS). A control was set on each plate (100 μL of culture medium was added);
(§10) 2) The plate was incubated overnight at 37° C., 5% CO2. The plate was turned upside down and observed under the microscope.
(§11) 3) The solutions of different concentrations of the compounds to be tested were added to each well, and a control well (culture medium and MTS solution with cells but no drug) and a blank well (without cells, medium and MTS solution) were set, 3 to 5 repetition wells were set for each group. Incubation was performed at 37° C. for 48-72 hours.
(§12) 4) 10 μL/well of MTS/PMS (20:1, Promega Corp) solution was added to each well containing 100 μL of culture medium, and then the plate was gently shaken. The plate was incubated at 37° C. for 2 to 4 hours.
(§13) 5) M5 microplate reader (Molecular Device, USA) was used to measure the absorbance of the solution at 490 nm. […]

[27] = test system: lung fibroblast cell line MRC-5; experiment: Cytotoxic activity test (MTS), MRC-5; type: cell-based, human; details: 5 μM
Experimental: as §8, §9, §10, §11, §12, §13

EPH-A2, sequence (P29317 24-976, species assumed): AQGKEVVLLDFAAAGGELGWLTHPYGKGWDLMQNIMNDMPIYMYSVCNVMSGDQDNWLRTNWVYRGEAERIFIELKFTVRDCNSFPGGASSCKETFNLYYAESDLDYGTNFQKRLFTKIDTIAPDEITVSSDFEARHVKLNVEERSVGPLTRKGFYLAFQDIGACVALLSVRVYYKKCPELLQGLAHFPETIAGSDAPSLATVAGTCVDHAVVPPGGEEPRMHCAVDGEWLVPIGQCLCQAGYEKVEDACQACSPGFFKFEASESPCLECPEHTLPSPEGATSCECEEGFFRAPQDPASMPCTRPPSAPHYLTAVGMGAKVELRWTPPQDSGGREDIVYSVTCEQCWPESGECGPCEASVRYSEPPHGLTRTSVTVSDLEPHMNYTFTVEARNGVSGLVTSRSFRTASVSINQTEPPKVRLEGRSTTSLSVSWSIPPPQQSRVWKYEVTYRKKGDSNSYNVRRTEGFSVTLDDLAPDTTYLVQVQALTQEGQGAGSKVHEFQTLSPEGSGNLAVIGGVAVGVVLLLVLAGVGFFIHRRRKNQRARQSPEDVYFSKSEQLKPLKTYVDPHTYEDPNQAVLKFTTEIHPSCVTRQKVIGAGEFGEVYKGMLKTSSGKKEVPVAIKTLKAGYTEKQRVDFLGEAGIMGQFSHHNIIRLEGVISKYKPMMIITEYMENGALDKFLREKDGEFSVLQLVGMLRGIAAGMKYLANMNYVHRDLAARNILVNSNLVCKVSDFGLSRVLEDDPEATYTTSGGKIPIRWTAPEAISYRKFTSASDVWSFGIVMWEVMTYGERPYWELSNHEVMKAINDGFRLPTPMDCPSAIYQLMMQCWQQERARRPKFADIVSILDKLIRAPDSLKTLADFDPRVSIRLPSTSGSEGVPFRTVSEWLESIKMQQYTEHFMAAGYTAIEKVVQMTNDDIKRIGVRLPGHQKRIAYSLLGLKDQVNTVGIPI
EGFR, sequence (P00533 25-1210, species assumed): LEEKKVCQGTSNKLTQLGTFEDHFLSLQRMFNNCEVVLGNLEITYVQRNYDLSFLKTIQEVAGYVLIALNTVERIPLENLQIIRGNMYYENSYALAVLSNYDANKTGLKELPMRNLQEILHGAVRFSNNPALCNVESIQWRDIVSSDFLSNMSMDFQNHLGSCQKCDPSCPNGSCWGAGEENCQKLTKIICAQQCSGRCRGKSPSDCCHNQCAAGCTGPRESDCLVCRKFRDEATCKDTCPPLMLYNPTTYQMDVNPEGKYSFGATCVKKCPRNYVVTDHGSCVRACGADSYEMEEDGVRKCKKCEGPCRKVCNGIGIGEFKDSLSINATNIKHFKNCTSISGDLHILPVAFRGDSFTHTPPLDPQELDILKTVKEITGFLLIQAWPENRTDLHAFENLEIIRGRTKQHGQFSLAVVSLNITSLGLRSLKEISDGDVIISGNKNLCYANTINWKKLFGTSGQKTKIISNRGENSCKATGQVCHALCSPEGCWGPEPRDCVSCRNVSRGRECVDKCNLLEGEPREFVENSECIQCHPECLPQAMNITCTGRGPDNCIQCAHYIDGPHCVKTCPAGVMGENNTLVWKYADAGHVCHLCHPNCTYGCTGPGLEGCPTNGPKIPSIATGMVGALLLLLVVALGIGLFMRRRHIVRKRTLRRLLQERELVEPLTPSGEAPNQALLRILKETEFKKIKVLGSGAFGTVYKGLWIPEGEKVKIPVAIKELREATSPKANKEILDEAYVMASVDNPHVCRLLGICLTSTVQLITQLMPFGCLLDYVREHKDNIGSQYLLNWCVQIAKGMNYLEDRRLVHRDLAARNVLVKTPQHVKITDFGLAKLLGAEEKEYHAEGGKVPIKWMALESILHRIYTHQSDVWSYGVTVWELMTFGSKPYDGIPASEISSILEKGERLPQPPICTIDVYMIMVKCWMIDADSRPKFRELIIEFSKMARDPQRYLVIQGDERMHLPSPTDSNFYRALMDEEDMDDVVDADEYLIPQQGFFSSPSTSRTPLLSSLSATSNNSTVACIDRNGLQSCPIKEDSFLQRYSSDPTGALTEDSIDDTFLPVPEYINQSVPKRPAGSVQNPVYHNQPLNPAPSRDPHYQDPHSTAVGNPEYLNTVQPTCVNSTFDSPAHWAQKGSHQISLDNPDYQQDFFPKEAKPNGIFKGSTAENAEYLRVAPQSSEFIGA
FGFR-3, sequence (P22607 23-806, species assumed): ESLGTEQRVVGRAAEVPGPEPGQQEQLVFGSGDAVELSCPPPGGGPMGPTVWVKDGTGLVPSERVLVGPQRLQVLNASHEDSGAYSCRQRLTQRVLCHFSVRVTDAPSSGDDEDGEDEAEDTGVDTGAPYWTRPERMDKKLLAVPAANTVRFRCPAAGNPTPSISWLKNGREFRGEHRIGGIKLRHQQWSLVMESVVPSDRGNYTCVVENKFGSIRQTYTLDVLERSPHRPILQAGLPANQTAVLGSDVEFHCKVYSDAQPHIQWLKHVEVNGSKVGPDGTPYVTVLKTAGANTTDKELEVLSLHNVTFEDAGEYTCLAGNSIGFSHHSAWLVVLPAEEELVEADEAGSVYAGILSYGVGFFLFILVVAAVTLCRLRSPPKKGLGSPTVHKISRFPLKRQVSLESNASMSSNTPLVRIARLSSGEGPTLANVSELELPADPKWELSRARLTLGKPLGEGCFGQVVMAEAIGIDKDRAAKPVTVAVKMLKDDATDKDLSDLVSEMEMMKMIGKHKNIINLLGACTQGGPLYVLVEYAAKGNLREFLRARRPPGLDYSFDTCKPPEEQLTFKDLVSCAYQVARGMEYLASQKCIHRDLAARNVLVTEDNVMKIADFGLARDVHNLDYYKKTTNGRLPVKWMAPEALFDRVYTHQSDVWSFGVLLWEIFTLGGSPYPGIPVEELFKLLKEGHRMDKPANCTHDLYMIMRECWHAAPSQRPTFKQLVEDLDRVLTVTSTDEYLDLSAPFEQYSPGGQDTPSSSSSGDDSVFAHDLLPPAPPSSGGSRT
KDR, sequence (P35968 20-1356, species assumed): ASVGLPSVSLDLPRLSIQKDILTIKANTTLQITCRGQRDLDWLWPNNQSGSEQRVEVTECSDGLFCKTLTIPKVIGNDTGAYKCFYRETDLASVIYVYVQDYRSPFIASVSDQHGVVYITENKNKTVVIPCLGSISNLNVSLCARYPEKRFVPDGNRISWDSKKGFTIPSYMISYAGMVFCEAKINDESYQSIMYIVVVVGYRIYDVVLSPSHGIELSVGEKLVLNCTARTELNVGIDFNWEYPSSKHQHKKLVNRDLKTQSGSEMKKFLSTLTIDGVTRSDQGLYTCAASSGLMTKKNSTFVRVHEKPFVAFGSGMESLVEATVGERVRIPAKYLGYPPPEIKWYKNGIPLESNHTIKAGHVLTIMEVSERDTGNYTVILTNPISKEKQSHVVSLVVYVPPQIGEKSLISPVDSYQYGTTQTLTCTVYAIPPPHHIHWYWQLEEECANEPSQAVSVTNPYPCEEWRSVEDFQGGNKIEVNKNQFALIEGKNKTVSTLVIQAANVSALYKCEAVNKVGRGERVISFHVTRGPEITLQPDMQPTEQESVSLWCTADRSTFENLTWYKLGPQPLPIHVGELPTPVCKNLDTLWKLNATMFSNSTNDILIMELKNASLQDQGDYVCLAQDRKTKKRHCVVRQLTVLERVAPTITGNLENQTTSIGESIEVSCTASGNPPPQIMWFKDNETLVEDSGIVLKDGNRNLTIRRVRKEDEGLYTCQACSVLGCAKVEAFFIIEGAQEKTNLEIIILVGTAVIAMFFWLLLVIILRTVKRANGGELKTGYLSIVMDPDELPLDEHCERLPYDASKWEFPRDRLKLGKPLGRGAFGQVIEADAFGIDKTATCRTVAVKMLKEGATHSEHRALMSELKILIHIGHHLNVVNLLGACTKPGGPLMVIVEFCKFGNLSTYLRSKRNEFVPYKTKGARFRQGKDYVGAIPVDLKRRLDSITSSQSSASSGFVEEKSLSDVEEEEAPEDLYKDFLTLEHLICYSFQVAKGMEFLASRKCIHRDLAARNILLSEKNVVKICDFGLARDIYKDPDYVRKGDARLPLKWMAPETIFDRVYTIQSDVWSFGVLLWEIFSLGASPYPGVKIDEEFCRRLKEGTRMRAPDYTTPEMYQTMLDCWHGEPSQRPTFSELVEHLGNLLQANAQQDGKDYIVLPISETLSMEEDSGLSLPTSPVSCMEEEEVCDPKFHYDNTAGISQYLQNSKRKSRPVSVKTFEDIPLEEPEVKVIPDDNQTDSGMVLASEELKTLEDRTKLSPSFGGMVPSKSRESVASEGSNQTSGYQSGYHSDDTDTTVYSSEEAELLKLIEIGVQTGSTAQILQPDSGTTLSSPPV
FGFR-1, sequence (P11362 22-822, species assumed): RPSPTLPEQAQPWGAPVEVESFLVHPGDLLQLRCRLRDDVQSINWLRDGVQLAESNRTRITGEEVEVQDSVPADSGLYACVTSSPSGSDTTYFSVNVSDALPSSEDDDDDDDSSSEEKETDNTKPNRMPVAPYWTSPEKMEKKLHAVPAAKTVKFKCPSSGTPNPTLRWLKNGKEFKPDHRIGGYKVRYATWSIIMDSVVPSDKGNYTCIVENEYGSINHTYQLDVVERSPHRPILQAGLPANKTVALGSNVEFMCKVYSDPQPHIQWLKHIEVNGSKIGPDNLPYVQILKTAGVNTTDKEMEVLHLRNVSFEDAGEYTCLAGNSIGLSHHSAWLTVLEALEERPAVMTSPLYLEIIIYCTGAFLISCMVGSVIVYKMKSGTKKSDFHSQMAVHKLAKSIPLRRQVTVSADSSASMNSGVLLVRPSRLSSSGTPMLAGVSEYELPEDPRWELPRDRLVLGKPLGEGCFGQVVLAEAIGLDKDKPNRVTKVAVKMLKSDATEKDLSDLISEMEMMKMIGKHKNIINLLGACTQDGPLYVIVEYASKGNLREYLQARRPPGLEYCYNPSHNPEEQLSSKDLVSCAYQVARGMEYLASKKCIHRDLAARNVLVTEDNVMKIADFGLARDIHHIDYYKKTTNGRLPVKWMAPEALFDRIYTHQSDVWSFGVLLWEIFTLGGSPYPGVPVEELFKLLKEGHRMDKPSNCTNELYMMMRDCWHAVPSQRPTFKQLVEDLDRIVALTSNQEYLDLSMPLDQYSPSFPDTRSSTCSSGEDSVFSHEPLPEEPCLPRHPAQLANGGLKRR

- IC50 [1]: > 1000 nM
- IC50 [2]: > 1000 nM
- IC50 [3]: > 1000 nM
- IC50 [4]: > 1000 nM
- selectivity for kinases [5]: good selectivity
- IC50 [6]: > 1000 nM
- IC50 [7]: > 1000 nM
- IC50 [8]: > 1000 nM
- IC50 [9]: > 1000 nM
- IC50 [10]: > 1000 nM
- IC50 [11]: > 1000 nM
- IC50 [12]: > 1000 nM
- IC50 [13]: > 1000 nM
- IC50 [14]: > 1000 nM
- IC50 [15]: > 1000 nM
- IC50 [16]: > 1000 nM
- IC50 [17]: > 1000 nM
- IC50 [18]: > 1000 nM
- IC50 [19]: > 1000 nM
- IC50 [20]: > 1000 nM
- IC50 [21]: > 1000 nM
- IC50 [22]: > 1000 nM
- IC50 [23]: 3.7 ± 0.2 nM
- IC50 [24]: > 1000 nM
Compound: CCC(NC(=O)c1ccc(C2CC2)c(-c2ccc3nc(Nc4cnn(C5CC5)c4)ncc3c2)c1)c1cccc(C(F)(F)F)c1 (stereo not shown) [Compound S18]

Compound: COC(=O)c1ccc2c(c1)NC(=O)/C2=C(\Nc1ccc(N(C)C(=O)CN2CCN(C)CC2)cc1)c1ccccc1 [Nintedanib]
- BLM-induced lung injury, H&E staining ([25]; Effect example 4, S15 30, 60, 90 mg/kg, Nintedanib 30 mg/kg, oral qd 12 days): improved significantly
- BLM-induced lung injury, H&E staining ([25]; Effect example 7, 30 mg/kg oral qd 12 days): significantly improved
- cytotoxic activity on Beas-2B [26]: significant cytotoxicity
- cytotoxic activity on MRC-5 [27]: significant cytotoxicity
